Laboratory results: US9221810B2, “Substituted bicyclic aromatic compounds as S-nitrosoglutathione reductase inhibitors” (Nivalis Therapeutics, Inc., priority 2010, dated 2015)

How the values were obtained:
[1] = system: acute dextran sodium sulfate (DSS)-induced IBD; experiment: Acute prophylactic model of DSS-induced IBD in mice; assay type: in vivo, male C57Bl/6 mice
Excerpt: Acute and chronic models of dextran sodium sulfate (DSS)-induced IBD in mice were used to explore efficacy of GSNORi against this disease. Acute and chronic DSS-induced IBD are widely used and well characterized models that induce pathological changes in the colon similar to those observed in the human disease. In these models and in human disease, epithelial cells within the crypts of the colon are disrupted, leading to dysfunction of the epithelial barrier and the ensuing tissue inflammation, edema, and ulceration. GSNORi therapy may benefit IBD by restoring s-nitrosoglutathione (GSNO) levels, and thus prevent or reverse the epithelial barrier dysfunction. Experimental IBD was induced by administration of DSS in the drinking water of male C57Bl/6 mice (N=8 to 10 mice per group) for 6 consecutive days. GSNORi was dosed orally at doses of 0.1 to 10 mg/kg/day for 10 days starting two days prior to and continuing two days post DSS exposure. Two days post DSS exposure, the effect of GSNORi was assessed in a blinded fashion via endoscopy and histopathology using a five point scale ranging from a score=0 (normal tissue) through a score=4 (ulcerative tissue damage and marked pathological changes). Levels of circulating cytokines involved in inflammatory pathways were also assessed. The effect of GSNORi was compared to vehicle treated controls. The corticosteroid, prednisolone, was used as the positive control in this study and was administered daily at 3 mg/kg/day via oral dosing. Naïve mice (N=5) were also assessed as a normal tissue control.

[2] = system: cigarette smoke-induced COPD (subchronic 11 day); experiment: Subchronic (11 day) cigarette smoke exposure COPD model; assay type: in vivo, female C57Bl/6 mice
Protocol: The efficacy of GSNOR inhibitors was assessed in a mouse model of chronic obstructive pulmonary disease (COPD) induced by short duration (4 days or 11 days) of exposure to cigarette smoke. Infiltration of inflammatory cells into the bronchoalveolar lavage fluid (BALF) and BALF levels of chemokines involved in inflammation and tissue turnover/repair were measured to assess the influences of GSNOR inhibitors on some of the early events associated with the initiation and progression of COPD.
Efficacy of GSNOR inhibitors against COPD was explored using acute (4 day) and subchronic (11 day) models of cigarette smoke-induced COPD in mice. […] In animal models, changes in lung pathology are only evident after extended (several months) duration of exposure to cigarette smoke, thus making chronic models prohibitive as effective screening tools. More recently, models exploring inflammatory responses after short duration (2 weeks or less) of smoke exposure in mice have been utilized as tools for screening efficacy and mechanisms of action of novel therapeutics against COPD. The key roles of inflammation in the initiation and progression of COPD, make these short duration models relevant for initial tests of efficacy of novel therapeutics.
Subchronic (11 Day) Smoke Exposure Model: Female C57Bl/6 mice (N=10 per group) were exposed to cigarette smoke generated from Marlboro 100 cigarettes without filters. Exposure times were 25 min. on study day 1, 35 min. on study day 2, and 45 min. on study days 3 to 11. GSNOR inhibitors were administered one hour prior to smoke exposure on each day. GSNOR inhibitors were dosed orally at 1 to 10 mg/kg/day for 11 days. The effects of GSNOR inhibitors were assessed by quantitating the number of total cells, and leukocytes differentials in the BALF via light microscopy at 24 h after the last exposure. The effect of GSNOR inhibitors were compared to vehicle treated controls and expressed as percent inhibition of the cigarette smoke induced increases in BALF cell numbers. Roflumilast was used as the positive control for the study and was dosed at 5 mg/kg/day. A group of naïve mice (N=10) was exposed to air and dosed with vehicle as a negative control for the study.

[3] = oral 10 mg/kg/day for 10 consecutive days, prophylactic

Row | Compound | circulating inflammatory cytokines ([1]; acute DSS model, oral dosing) | effects compared to prednisolone (positive control) ([1]; prednisolone 3 mg/kg/day oral) | inhibition of lymphocytes in BALF ([2]; oral 5 mg/kg/day) [%] | inhibition of macrophages in BALF ([2]; oral 5 mg/kg/day) [%] | inhibition of neutrophils in BALF ([2]; oral 5 mg/kg/day) [%] | inhibition of total cells in BALF ([2]; oral 5 mg/kg/day) [%] | inhibition of smoke-induced increase in eosinophils in BALF ([2]; oral 10 mg/kg/day for 11 days) [%] | inhibition of smoke-induced increase in lymphocytes in BALF ([2]; oral 10 mg/kg/day for 11 days) [%] | inhibition of smoke-induced increase in macrophages in BALF ([2]; oral 10 mg/kg/day for 11 days) [%] | inhibition of smoke-induced increase in neutrophils in BALF ([2]; oral 10 mg/kg/day for 11 days) [%] | inhibition of smoke-induced increase in total cells in BALF ([2]; oral 10 mg/kg/day for 11 days) [%] | decrease of percent of mice with severe colon injury scores via endoscopy [1, 3] | decrease of percent of mice with severe colon injury scores via histopathology [1, 3] | dose response of effect ([2]; 1, 5, or 10 mg/kg/day) | effects compared to roflumilast (positive control) ([2]; subchronic 11 day model, roflumilast 5 mg/kg/day)
1 | O=C(O)c1ccc(-c2ccc3cc(O)ccc3n2)cc1 [Example 3, 4-(6-hydroxyquinolin-2-yl)benzoic acid] | restored circulating inflammatory cytokines towards levels observed in untreated naïve mice | comparable to or greater than those observed for prednisolone | 46 | 23 | 29 | 22 | 70 | 49 | 24 | 41 | 25 |  |  |  | 
2 | O=C(O)c1ccc(-c2ccc3cc(O)ccc3n2)c(Cl)c1 [Example 8, 3-chloro-4-(6-hydroxyquinolin-2-yl)benzoic acid] |  |  |  |  |  |  |  |  |  |  |  | 44 % of vehicle control | 26 % of vehicle control | no dose response of effect | comparable to those of roflumilast
